Results: patent US9776992B2, “1-oxo-1,2-dihydroisoquinolin-7-yl-(5-substituted-thiophen-2-yl)-sulfonamide compounds, formulations containing those compounds, and their use as AICARFT inhibitors in the treatment of cancers” (Eli Lilly and Company, priority 2014, dated 2017)
pIC50: −log10 of the molar value.

Molecular target: AICARFT (Homo sapiens, UniProt P31939)
Assay: AICARFT enzyme assay (LC-MS of IMP and ZMP)
Type: biochemical
Design: made in house; host or cells: E. coli BL21(DE3)
Settings: for pIC50: Mean ± SEM, 25 μM ZMP, 100 μM 10-F-THFA, 3 nM ATIC enzyme, 1 hour at room temperature; for AICARFT inhibition in enzyme assay (in words): summary of Table 15
Experimental: Human AICARFT (NCBI accession number: NM_004044.6) cDNA is purchased from Openbiosystem Co. (Cat# MHS1011-62310, Clone ID: 4300570, accession: BC008879). The nucleotide sequence encoding full-length human AICARFT is inserted into pET21d (Novagen) vector with an N-terminal HIS tag. Bacterial BL21(DE3) (Novagen) is used as an expression host, and the induction of protein expression is carried out in 2×TY media with 1 mM IPTG at 18° C. overnight. Cell pellets are stored at −80° C. for subsequent protein purification. Protein purification is conducted at 4° C. Frozen cell pellets are lysed by incubation with stirring in 50 mL cold lysis buffer (50 mM Tris-HCl, pH 7.5, 300 mM NaCl, 10% glycerol, 0.1% Triton X-100, 0.5 mg/mL lysozyme, 5 U/mL benzonase, 1 mM DTT, 10 mM imidazole, and Roche complete EDTA-free protease inhibitor) per liter cell pellet and sonication. Cell lysates are clarified by centrifugation in a Bechman JA-18 rotor for 45 min at 16,500 rpm. The supernatant is incubated with Ni-NTA agarose resin (Qiagen) for 3 hours, followed by an initial batch wash with 10 resin volume of buffer A (50 mM Tris-HCl, pH 7.5, 300 mM NaCl, 10% glycerol, 1 mM DTT, 10 mM imidazole) containing 0.1% Triton X-100. The resin is then packed onto a column and washed with buffer A. The HIS-tagged AICARFT protein is eluted with 10-500 mM imidazole gradient in buffer A. Pooled HIS-AICARFT containing fractions are concentrated, loaded onto a HiLoad 26/600 Superdex 200 column (GE Healthcare Biosciences), and eluted with storage buffer (50 mM Tris-HCl, pH7.5, 150 mM NaCl, 1 mM DTT, 10% Glycerol). Fractions containing HIS-AICARFT are pooled and protein concentration determined by the Bradford assay using BSA as standard. The protein is aliquoted and stored at −80° C.
One of the substrates of the enzyme reaction, 10-formyltetrahydrofolate (10-F-THFA), has limited chemical stability and is therefore synthesized on the same day that the ATIC enzyme assay is performed. The general synthetic route is described in P. Rowe, Methods Enzymol., 18, 733-735, (1971) and J. Rabinowitz, Methods Enzymol., 6, 814-815, (1963). The first step in this synthesis is the conversion of folinic acid (Sigma CAS 1492-18-8) to 5,10-methenyltetrahydrofolic acid (5,10-M-THFA). This conversion typically takes place the day before the enzyme assay is performed, but can be performed up to 1 week earlier and stored at room temperature. To folinic acid (81.6 mg) is added β-mercaptoethanol (2 mL), and 37% concentrated HCl (80 μL), is added. This reaction incubates a minimum of 3 hours at room temperature, with occasional mixing. The color changes from clear to yellow visually, and the complete conversion of folinic acid to 5,10-M-THFA is monitored by spectral analysis using a quartz cuvette. The UV absorption will change from 266 nm to 356 nm during this step. […] On the morning of the assay, the 80 mM 5,10-M-THFA is diluted to 1.6 mM in 40 μM ammonium bicarbonate (made fresh that day). This reaction incubates 3-5 hours at room temperature. The color changes from yellow to clear visually, and the conversion of 5,10-M-THFA to 10-F-THFA is monitored by spectral analysis using a quartz cuvette. The UV absorption will change from 356 nm to 258 nm during this step. […] Test compounds are prepared in DMSO to make a 10 mM stock solution. The stock solution is serially diluted 3-fold in DMSO to obtain a ten-point dilution curve with final compound concentrations ranging from 100 μM to 5 nM. The final DMSO concentration in the assay is 5%.
To each well of a 384-well polypropylene assay plate (NUNC 264573), […] of DMSO (control wells) or compound in DMSO and 9 μL of 55.56 μM ZMP (Sigma-Aldrich CAS 3031-94-5) in water are added. Then, 10 μL of 200 μM 10-F-THFA and 6 nM ATIC enzyme in 40 μM ammonium bicarbonate is added. […] The assay is incubated for 1 hour at room temperature, after which 40 μL of ACN is added to stop the reaction.

AICARFT, sequence (P31939 whole entry): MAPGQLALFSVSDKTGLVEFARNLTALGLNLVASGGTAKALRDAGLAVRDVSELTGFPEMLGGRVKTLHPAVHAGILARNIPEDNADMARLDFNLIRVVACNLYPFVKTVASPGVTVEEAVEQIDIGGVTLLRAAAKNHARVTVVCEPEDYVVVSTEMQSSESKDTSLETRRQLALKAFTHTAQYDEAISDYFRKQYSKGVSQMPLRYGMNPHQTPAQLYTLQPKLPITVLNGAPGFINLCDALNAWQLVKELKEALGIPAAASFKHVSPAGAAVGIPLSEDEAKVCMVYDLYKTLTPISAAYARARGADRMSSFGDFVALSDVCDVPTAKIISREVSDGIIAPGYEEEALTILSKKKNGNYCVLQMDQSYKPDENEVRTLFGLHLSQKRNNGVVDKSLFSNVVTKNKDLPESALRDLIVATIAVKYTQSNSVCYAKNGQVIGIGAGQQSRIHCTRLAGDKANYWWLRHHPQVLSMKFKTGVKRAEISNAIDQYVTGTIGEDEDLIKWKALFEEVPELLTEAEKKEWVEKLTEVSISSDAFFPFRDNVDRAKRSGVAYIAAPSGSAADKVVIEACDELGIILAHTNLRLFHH

Structure (SMILES)	pIC50	AICARFT inhibition in enzyme assay (in words)
O=c1[nH]ccc2cc(F)c(NS(=O)(=O)c3ccc(N4C[C@@H](O)[C@@H](F)C4)s3)cc12 (single isomer, unassigned) [Example 33]	8.11	inhibit AICARFT
O=c1[nH]ccc2cc(F)c(NS(=O)(=O)c3ccc([C@@H]4CC[C@@H](O)C4)s3)cc12 (single isomer, unassigned) [Example 46]	7.54	inhibit AICARFT
CCC1(C)CC(c2ccc(S(=O)(=O)Nc3cc4c(=O)[nH]ccc4cc3F)s2)=CNC1=O (single isomer, unassigned; isomer 1) [Example 84, 5-(5-Ethyl-5-methyl-6-oxo-1,4,5,6-tetrahydropyridin-3-yl)-N-(6-fluoro-1-oxo-1,2-dihydroisoquinolin-7-yl)thiophe2ne-2-sulfonamide, Isomer 1]	> 8.29	inhibit AICARFT
O=c1[nH]ccc2cc(F)c(NS(=O)(=O)c3ccc(N4CC[C@@H](O)C4)s3)cc12 [Example 1, N-(6-Fluoro-1-oxo-1,2-dihydroisoquinolin-7-yl)-5-[(3R)-3-hydroxypyrrolidin-1-yl]thiophene-2-sulfonamide]		inhibit AICARFT
O=c1[nH]ccc2cc(F)c(NS(=O)(=O)c3ccc(N4C[C@@H](O)C(F)(F)C4)s3)cc12 [Example 41, 5-[(4R)-3,3-difluoro-4-hydroxypyrrolidin-1-yl]-N-(6-fluoro-1-oxo-1,2-dihydroisoquinolin-7-yl)thiophene-2-sulfonamide]	7.97	inhibit AICARFT
CC1(C)CC(c2ccc(S(=O)(=O)Nc3cc4c(=O)[nH]ccc4cc3F)s2)=CNC1=O [Example 81, 5-(5,5-Dimethyl-6-oxo-1,4,5,6-tetrahydropyridin-3-yl)-N-(6-fluoro-1-oxo-1,2-dihydroisoquinolin-7-yl)thiophene-2-sulfonamide]	> 8.29	inhibit AICARFT
